Data: patent US7964625B2, “Antibiotics comprising bis(1-aryl-5-tetrazoly1)methane derivatives” (Nederlandse Organisatie Voor …, priority 2005, dated 2011)
Values after ≈ are worked out from the molar mass of the structure shown. Read-outs that look alike come from different tables or passages of the source. One block for each molecule: values may come before it.

Legend:
S. aureus ATCC 29213 = assay: MIC test, single strain S. aureus ATCC 29213; assay type: cell-based; conditions: for MIC: Staphylococcus aureus
Protocol: (§1) MIC test were performed according to standard methodology: M7-A6-“Methods for Dilution Antimicrobial Susceptibility Tests for Bacteria That Grow Aerobically”; Approved Standard, Sixth Edition Clinical and Laboratory Standards Institute 2005 (CLSI/formerly NCCLS).
(§2) Table II lists the results of 6 different compounds according to Formula (I) on single strains of S. aureus as MIC values expressed in micrograms per milliliter.
(§3) Table IV lists additional MIC data on single strains of S. aureus as MIC values expressed in micrograms per milliliter. Again BAS 00160352 (NewCo003) is tested, next to its monochloric pendant (NewCo0030) and several of the new compounds of Table I. Some of the experiments were carried out in duplicate. Strains TTC03.0236 and TTC03.0239 are two MRSA strains obtained from the Utrecht University Medical Centre (UMC 01-8756/140 and UMC 03-543155, respectively). Several of the new compounds of Table I appear to be at least as active as NewCo003.

S. aureus MW2 = assay: MIC test, single strain S. aureus MW2; assay type: cell-based; conditions: for MIC S. aureus MW2: Table II; for MIC: Staphylococcus aureus, MW2, Table II
Protocol: as §1, §2

S. aureus N315 = assay: MIC test, single strain S. aureus N315; assay type: cell-based; conditions: for MIC S. aureus N315: Table II; for MIC: Staphylococcus aureus, N315, Table II
Protocol: as §1, §2

S. aureus strains = assay: MIC test on multiple strains of S. aureus; assay type: cell-based; conditions: for Range MIC (highest): highest value found; for Range MIC (lowest): lowest value found
Protocol: as §1

MRSA 2141 = assay: Local thigh muscle infection with MRSA 2141 in the mouse, CFU outgrowth; assay type: in vivo; conditions: for Reduction of MRSA 2141 CFU in thigh muscle: 24 hours after dosing, vs vehicle
Protocol: The purpose of this study was to investigate the antibiotic efficacy of different doses of compound BAS00160352 (NewCo003) against a local infection with MRSA 2141 in the mouse. Thirty mice were treated intravenously with 0.05, 0.5 or 5.0 mg/kg body weight, respectively. Outgrowth of the infection was used to establish drug efficacy.
For each administered dose the appropriate stock solution was made as a 1 ml aliquot of the test substance in the vehicle (DMSO). The stock solutions were stored at 2-8° C. for 16 hours.
(§4) The test substances were administered as a solution in dimethylsulfoxide (DMSO). The test substance was administered as 20 μl injections per mouse at all dose levels. Vancomycin was used as positive control and injected intravenously as a 10 mg/ml solution in DMSO (20 μl per mouse). Fresh dilutions of the test substance in vehicle were provided, stored at 2-8° C., and used within 18 hours after preparation. Shortly before injection the test substance was warmed to room temperature.
The mice were injected i.m. with 22E05 MRSA 2141 bacteria, strain 2141 in the right thigh muscle, followed one day later by an i.v. injection of the test compound, vancomycin or vehicle in the tail vein. 24 hours later mice were sacrificed, blood was collected by heart puncture and the right thigh muscle was removed. Plasma was prepared from blood samples and stored at −80°±10° C. for possible future analysis. Thigh muscles were weighted and homogenized using an Ultra-Turrax® and dilutions of the homogenate were prepared in saline. Limiting dilutions were plated onto agar plates and two days later the number of MRSA 2141 CFU were determined for each individual mouse as an indication of bactericidal activity of the compound. Additionally, tests were performed to determine if the bacteria used are still oxacillin resistant Staphylococcus aureus. This was done before injection and on pooled thigh muscle isolates per group. […] In vivo antibiotic activity is determined by a CFU reduction of >90% (1 log reduction) in comparison to the negative control (vehicle only). […]

[1] = Observation for adverse side effects after i.v. injection in infected mice; assay type: in vivo; conditions: mouse, i.v., 0.05, 0.5 or 5.0 mg/kg in DMSO
Protocol: as §4
The mice were injected i.m. with 22E05 MRSA 2141 bacteria, strain 2141 in the right thigh muscle, followed one day later by an i.v. injection of the test compound, vancomycin or vehicle in the tail vein. 24 hours later mice were sacrificed, blood was collected by heart puncture and the right thigh muscle was removed. Plasma was prepared from blood samples and stored at −80°±10° C. for possible future analysis. Thigh muscles were weighted and homogenized using an Ultra-Turrax® and dilutions of the homogenate were prepared in saline. Limiting dilutions were plated onto agar plates and two days later the number of MRSA 2141 CFU were determined for each individual mouse as an indication of bactericidal activity of the compound. […] In vivo antibiotic activity is determined by a CFU reduction of >90% (1 log reduction) in comparison to the negative control (vehicle only).

S. aureus TTC03.0236 = assay: MIC test, single strain S. aureus TTC03.0236 (MRSA); assay type: cell-based; conditions: Table IV, MRSA strain UMC 01-8756/140, some in duplicate
Protocol: as §1, §3

S. aureus TTC03.0239 = assay: MIC test, single strain S. aureus TTC03.0239 (MRSA); assay type: cell-based; conditions: Table IV, MRSA strain UMC 03-543155, some in duplicate
Protocol: as §1, §3

[2] = ATCC29213, Table II, single strain, read-out: MIC S. aureus ATCC 29213
[3] = Staphylococcus aureus, 60 tested S. aureus strains, read-out: MIC 50
[4] = Staphylococcus aureus, 60 tested S. aureus strains, read-out: MIC 90

Structure (SMILES): Clc1ccc(-n2nnnc2C(Cl)(Cl)c2nnnn2-c2ccc(Cl)cc2)cc1 [NewCo001, Bis-(1-p-chlorobenzen-5-tetrazolyl)-dichloromethane]
- MIC S. aureus ATCC 29213 (S. aureus ATCC 29213; Table II, single strain): 16 micrograms per milliliter
- MIC S. aureus MW2 (S. aureus MW2): 32 micrograms per milliliter
- MIC S. aureus N315 (S. aureus N315): 2 micrograms per milliliter
- MIC50 (S. aureus strains; 60 tested S. aureus strains): 4 microgram/milliliter
- MIC90 (S. aureus strains; 60 tested S. aureus strains): 16 microgram/milliliter
- Range MIC (highest) (S. aureus strains; 60 tested S. aureus strains): >32 microgram/milliliter
- Range MIC (lowest) (S. aureus strains; 60 tested S. aureus strains): 1 microgram/milliliter

- MIC (S. aureus ATCC 29213; [2]): > 32 µg/mL
- MIC (S. aureus MW2): > 32 µg/mL
- MIC (S. aureus N315): 4 µg/mL (≈ 9.97 µM)
- Range MIC (highest) (S. aureus strains; 60 tested S. aureus strains): >32 microgram/milliliter
- Range MIC (lowest) (S. aureus strains; 60 tested S. aureus strains): 0.5 microgram/milliliter
- MIC50 (S. aureus strains; [3]): 32 µg/mL (≈ 79.7 µM)
- MIC90 (S. aureus strains; [4]): > 32 µg/mL
Structure (SMILES): Cc1ccc(-n2nnnc2C(Cl)(Cl)c2nnnn2-c2ccc(C)cc2)cc1 [NewCo002, Bis-(1-p-tolyl-5-tetrazolyl)-dichloromethane]

Structure (SMILES): Cc1ccccc1-n1nnnc1C(Cl)(Cl)c1nnnn1-c1ccccc1C [NewCo003, Bis-(1-o-tolyl-5-tetrazolyl)-dichloromethane]
- MIC (S. aureus ATCC 29213; [2]): 0.06 µg/mL (≈ 0.15 µM)
- MIC (S. aureus ATCC 29213; ATCC29213, Table IV, some in duplicate, read-out: MIC S. aureus ATCC 29213): 0.19 µg/mL (≈ 0.474 µM)
- MIC S. aureus ATCC 29213 (S. aureus ATCC 29213; Table IV, some in duplicate): 0.1 micrograms per milliliter
- MIC (S. aureus MW2): 0.06 µg/mL (≈ 0.15 µM)
- MIC (S. aureus N315): 0.125 µg/mL (≈ 0.312 µM)
- Range MIC (highest) (S. aureus strains; 60 tested S. aureus strains): 0.5 microgram/milliliter
- Range MIC (lowest) (S. aureus strains; 60 tested S. aureus strains): 0.03 microgram/milliliter
- MIC50 (S. aureus strains; [3]): 0.06 µg/mL (≈ 0.15 µM)
- MIC90 (S. aureus strains; [4]): 0.12 µg/mL (≈ 0.299 µM)
- Trend of dose-dependent efficacy (MRSA 2141; i.v., 0.05 to 5.0 mg/kg): no significant trend of dose-dependent efficacy was observed
- Reduction of MRSA 2141 CFU in thigh muscle (MRSA 2141; single i.v. dose 0.05, 0.5 or 5.0 mg/kg one day after infection): Approximately 2 Log reduction
- Signs of adverse side effects during observation after injection [1]: no signs of adverse side effects were observed

Structure (SMILES): ClC(Cl)(c1nnnn1-c1ccccc1)c1nnnn1-c1ccccc1 [NewCo004, Bis-(1-benzene-5-tetrazolyl)-dichloromethane]
- MIC S. aureus ATCC 29213 (S. aureus ATCC 29213; Table II, single strain): 1 micrograms per milliliter
- MIC S. aureus MW2 (S. aureus MW2): 1 micrograms per milliliter
- MIC S. aureus N315 (S. aureus N315): 0.25 micrograms per milliliter
- MIC50 (S. aureus strains; 60 tested S. aureus strains): 1 microgram/milliliter
- MIC90 (S. aureus strains; 60 tested S. aureus strains): 2 microgram/milliliter
- Range MIC (highest) (S. aureus strains; 60 tested S. aureus strains): 4 microgram/milliliter
- Range MIC (lowest) (S. aureus strains; 60 tested S. aureus strains): 0.25 microgram/milliliter

- MIC (S. aureus ATCC 29213; [2]): 4 µg/mL (≈ 10.9 µM)
Structure (SMILES): Cc1ccc(-n2nnnc2C(Cl)c2nnnn2-c2ccc(C)cc2)cc1 [NewCo005, Bis-(1-p-tolyl-5-tetrazolyl)-chloromethane]

Structure (SMILES): COc1ccccc1-n1nnnc1C(Cl)(Cl)c1nnnn1-c1ccccc1OC [NewCo006, Bis-(1-o-methoxybenzene-5-tetrazolyl)-dichloromethane]
- MIC S. aureus ATCC 29213 (S. aureus ATCC 29213; Table II, single strain): 4 micrograms per milliliter

Structure (SMILES): COc1ccccc1-n1nnnc1C(Cl)(Cl)c1nnnn1-c1ccccc1OC [NewCo007, Bis-(1-o-methoxybenzene-5-tetrazolyl)-dichloromethane]
- MIC S. aureus ATCC 29213 (S. aureus ATCC 29213; Table IV, some in duplicate): 1.56 micrograms per milliliter
- MIC S. aureus TTC03.0236 (S. aureus TTC03.0236): 1.56 micrograms per milliliter
- MIC S. aureus TTC03.0239 (S. aureus TTC03.0239): 1.56 micrograms per milliliter

Structure (SMILES): Fc1ccccc1-n1nnnc1C(Cl)(Cl)c1nnnn1-c1ccccc1F [NewCo0018, Bis-(1-o-fluorobenzene-5-tetrazolyl)-dichloromethane]
- MIC S. aureus ATCC 29213 (S. aureus ATCC 29213; Table IV, some in duplicate): 1.56 micrograms per milliliter
- MIC S. aureus TTC03.0236 (S. aureus TTC03.0236): 0.78 micrograms per milliliter

Structure (SMILES): COc1ccc(-n2nnnc2C(Cl)(Cl)c2nnnn2-c2ccc(OC)c(Cl)c2)cc1Cl [NewCo0021, Bis-(1-m-chloro-p-methoxybenzene-5-tetrazolyl)-dichloromethane]
- MIC S. aureus ATCC 29213 (S. aureus ATCC 29213; Table IV, some in duplicate): 1.56 micrograms per milliliter
- MIC S. aureus TTC03.0236 (S. aureus TTC03.0236): 0.78 micrograms per milliliter
- MIC S. aureus TTC03.0239 (S. aureus TTC03.0239): 1.56 micrograms per milliliter

Structure (SMILES): COc1ccc(Cl)cc1-n1nnnc1C(Cl)(Cl)c1nnnn1-c1cc(Cl)ccc1OC [NewCo0022]
- MIC S. aureus ATCC 29213 (S. aureus ATCC 29213; Table IV, some in duplicate): ≦0.05 micrograms per milliliter
- MIC S. aureus TTC03.0236 (S. aureus TTC03.0236): 0.1 micrograms per milliliter
- MIC S. aureus TTC03.0239 (S. aureus TTC03.0239): 0.19 micrograms per milliliter

Structure (SMILES): Clc1cccc(-n2nnnc2C(Cl)(Cl)c2nnnn2-c2cccc(Cl)c2Cl)c1Cl [NewCo0023, Bis-(1-o,m-dichlorobenzene-5-tetrazolyl)-dichloromethane]
- MIC S. aureus ATCC 29213 (S. aureus ATCC 29213; Table IV, some in duplicate): 0.19 micrograms per milliliter
- MIC S. aureus TTC03.0236 (S. aureus TTC03.0236): 0.19 micrograms per milliliter
- MIC S. aureus TTC03.0239 (S. aureus TTC03.0239): 0.39 micrograms per milliliter

Structure (SMILES): CN[C@H](CC(C)C)C(=O)N[C@H]1C(=O)N[C@@H](CC(N)=O)C(=O)N[C@H]2C(=O)N[C@H]3C(=O)N[C@H](C(=O)N[C@H](C(=O)O)c4cc(O)cc(O)c4-c4cc3ccc4O)[C@H](O)c3ccc(c(Cl)c3)Oc3cc2cc(c3O[C@@H]2O[C@H](CO)[C@@H](O)[C@H](O)[C@H]2O[C@H]2C[C@](C)(N)[C@H](O)[C@H](C)O2)Oc2ccc(cc2Cl)[C@H]1O [vancomycin, reference compound]
- MIC (S. aureus ATCC 29213; ATCC29213, read-out: MIC S. aureus ATCC 29213, Table IV, some in duplicate): 1.56 µg/mL (≈ 1.08 µM)
- MIC S. aureus ATCC 29213 (S. aureus ATCC 29213; Table IV, some in duplicate, listed as vancomycine): 0.78 micrograms per milliliter
- Range MIC (highest) (S. aureus strains; 60 tested S. aureus strains): 4 microgram/milliliter
- Range MIC (lowest) (S. aureus strains; 60 tested S. aureus strains): 0.12 microgram/milliliter
- MIC50 (S. aureus strains; Staphylococcus aureus): 0.5 µg/mL (≈ 0.345 µM)
- MIC90 (S. aureus strains; Staphylococcus aureus): 1 µg/mL (≈ 0.69 µM)
- Reduction of MRSA 2141 CFU in thigh muscle (MRSA 2141; positive control, single i.v. dose 10 mg/kg): Over 1 Log reduction
